Experimental data from the METLIN SMRT retention time set (Domingo-Almenara et al. 2019).

Assay: gradient 5% acetonitrile 3 min, to 50% in 2 min, to 85% in 15 min, held 3 min, 100 µL/min
Conditions: column: Zorbax Extend-C18 2.1 x 50 mm; eluents: water / acetonitrile, 0.1% formic acid
In short: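 Retention times come from adduct peaks that were picked computationally and then checked by hand. The standards, pure and pooled in mixtures of ~100 molecules, were run on a Zorbax Extend-C18 column (2.1 × 50 mm, 1.8 μm) at 100 μL/min with water and acetonitrile, each with 0.1% formic acid. Detection was by quadrupole time-of-flight mass spectrometry in positive and negative ionization mode, with a dead volume of 40 μL and a dwell volume of 900 μL.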

| SMILES | RP-LC retention time |
| --- | --- |
| CCOc1ccc(CNC(=O)Cc2nnc(-c3ccccn3)o2)cc1 | 699 s |
| O=C(Nc1cc(F)ccc1F)N1CCc2nc[nH]c2C1 | 571 s |
| O=c1c(=O)n(-c2ccc(Cl)cc2)ccn1Cc1nc(-c2ccccc2)no1 | 860 s |
| CCOC(=O)c1c(C)c(C(=O)NCc2ccccc2Cl)c(C)n1CC | 929 s |
| CCOC(=O)c1ncn(Cc2ccc3c(c2)OCO3)c1N | 609 s |
| O=C(Nc1nc(-c2ccccc2)cs1)c1ccccc1[N+](=O)[O-] | 947 s |
| CC(C)Cn1cc(CCNC(=O)C2CCCCC2)c2cccnc21 | 817 s |
| CCCNc1cc(N2CCCC(CCC(=O)Nc3ccccc3CC)C2)ncn1 (configuration not stated) | 735 s |
| O=C(NCCc1csc(-c2ccccc2)n1)C1CCN(C(=O)c2ccc(F)c(Cl)c2)CC1 | 1020 s |
| Cc1ccc(CNC(=O)C2CCCN(c3nnc4ccccn34)C2)cc1C (configuration not stated) | 708 s |
| CC(C)N1CCN(C(=O)c2ccc(-c3ccnc(N4CCCC4)n3)cc2)CC1 | 562 s |
| CCn1c(=O)c2c(nc(/C=C/c3ccc(OC)c(OC)c3)n2C)n(CC)c1=O | 869 s |
| Cc1ccc(NC(=O)c2ncn3c2C(=O)N(C2CC2)C(C)(C(=O)NC2CCCC2)C3)c(Cl)c1 (configuration not stated) | 864 s |
| O=C(NCc1csc(C2CCCN(C(=O)c3ccccc3F)C2)n1)C1CCC1 (configuration not stated) | 727 s |
| Cn1nccc1-c1cccc(-c2noc(/C=C/c3cccs3)n2)c1 | 1160 s |
| COc1cccc(C(=O)Nc2nnc(SC)s2)c1 | 755 s |
| Cc1ccc(-c2nc3cnccn3c2NCCC(=O)NCC2CC2)cc1 | 636 s |
| COc1ccc(CNCCc2c(C)[nH]c3ccc(F)cc23)cc1OC | 571 s |
| COCCOC1CN(C2CCN(C(=O)Nc3ccccc3)CC2)C12CCCCC2 (configuration not stated) | 641 s |
| O=C(c1cn(-c2cc(N3CCSCC3)ncn2)cn1)N1CCc2ccccc21 | 952 s |
| CCCN1CCN(c2cc(C(=O)O)c3cc(NC(=O)c4ccc(F)cc4)ccc3n2)CC1 | 888 s |
| Nc1cc(C2CCN(C(=O)Cc3c(F)cccc3Cl)CC2)no1 | 723 s |
| O=C(NCCSc1ncc(-c2ccc(F)cc2)[nH]1)c1cccs1 | 584 s |

| SMILES | RP-LC retention time |
| --- | --- |
| CC1Cc2cc(-c3cc(CC(=O)NCCc4ccc(S(N)(=O)=O)cc4)no3)ccc2O1 (configuration not stated) | 701 s |
| CCN1CCN(C(=O)C2CCCN(S(=O)(=O)c3ccc4c(ccn4CC)c3)C2)CC1 (configuration not stated) | 660 s |
| COCC1CCN(C(=O)COc2ccc(NC(=O)C3CC3)cn2)CC1 | 650 s |
| Cn1c(=O)n(C)c2cc(S(=O)(=O)c3ccccc3)c(NC(=O)Cc3cccc(F)c3)cc21 | 799 s |
| CCCCN1CC(c2nc3ccccc3n2CC(=O)N(C)c2ccccc2)CC1=O (configuration not stated) | 700 s |
| O=C(NC1CCCCC1)C1CCN(Cc2cc3ccccc3n2Cc2cccc(Cl)c2)CC1 | 847 s |
| COc1cccc(Cn2c(C(=O)N3CCC(C(=O)NC4CCCCC4)CC3)cc3ccsc32)c1 | 1000 s |
| CCOC(=O)c1ccc(Nc2ncccc2S(N)(=O)=O)cc1 | 841 s |
| CSc1cccc(NC(=O)C2CCN(S(=O)(=O)c3cn(C(C)C)cn3)CC2)c1 | 812 s |
| COc1ccc(CCNC(=O)C(=O)NCc2ccc(F)cc2)cc1OC | 770 s |
| NC1=C(Br)C(=O)c2ncccc2C1=O | 599 s |
| O=C(Nc1ccc(SCc2nnc(-c3ccc4c(c3)OCO4)o2)cc1)C1CCCCC1 | 1020 s |
| O=C(NCc1ccco1)C1CCCN(c2ncccc2-c2noc(C3CCC3)n2)C1 (configuration not stated) | 872 s |
| O=C(NCc1ccc(F)cc1F)c1sc2ncccc2c1-n1cccc1 | 1020 s |
| CCc1ccc(S(=O)(=O)N2CCc3c(c(-c4nnc(-c5ccccc5F)o4)nn3C)C2)cc1 | 1040 s |
| N#Cc1cccc(NC(=O)c2cccn2Cc2noc(-c3ccccc3)n2)c1 | 1040 s |
| CCc1ccc(CNC(=O)C2CCN(Cc3cn(CC)c4ccc(OC)cc34)CC2)cc1 | 761 s |
| CC(=O)Nc1ccc2c(c1)CN(C(=O)Cc1ccccc1F)C(C(=O)N(C)C)C2 (configuration not stated) | 1080 s |
| COc1ccc(C(=O)NC2(c3nc(C)no3)CCCCC2)c(C)c1 | 855 s |
| COc1ccc(OC)c(NC(=O)C(C)n2cnc3nc4c(cc3c2=O)CCCC4)c1 (configuration not stated) | 755 s |
| Cc1ccc(C(=O)Nc2nc(-c3ccc4c(c3)NC(=O)C(C)O4)c(C)s2)cc1 (configuration not stated) | 1010 s |
| COc1ccc(NC(=O)COc2cc(C)nc(N3CCN(c4ccccc4)CC3)n2)cc1 | 781 s |
| CCNC(=O)N1CCCC(c2cccc(C(=O)NC3CCCCC3)c2)C1 (configuration not stated) | 817 s |

| SMILES | RP-LC retention time |
| --- | --- |
| CC(C)n1nc(CNC(=O)C2CCC2)c2ccccc21 | 812 s |
| O=C(Nc1cccc(C(F)(F)F)c1)N1C[C@H]2C[C@H](C1)[C@H]1CCCC(=O)N1C2 | 731 s |
| CCCCNC(=O)C1CCN(C(=O)c2cc3ccsc3n2Cc2cccc(OC)c2)CC1 | 948 s |
| O=C(Nc1ccc(Cl)cc1)C(=O)c1c[nH]c2ccccc12 | 1030 s |
| COc1ccc(NC(=O)N2CCCC2c2nncn2C2CCCC2)c(OC)c1 (configuration not stated) | 662 s |
| CCOc1ccccc1-c1noc(Cn2c(=O)n(CC(C)C)c(=O)c3ccccc32)n1 | 1150 s |
| CCCN1CCCCc2cc(C(=O)NC(C)(C)C)sc21 | 1200 s |
| Cc1cc(C)n(-c2cc(N3CCCC(C(=O)Nc4nccs4)C3)ncn2)n1 (configuration not stated) | 749 s |
| O=C(NCC(F)(F)F)C1CN(C(=O)COc2ccccc2F)C1 | 666 s |
| CC(C)Cn1cc(CCNS(=O)(=O)c2cc(Cl)ccc2Cl)c2cccnc21 | 1040 s |
| O=C(Nc1ccc2nncn2c1)Nc1ccc(F)cc1F | 680 s |
| CCS(=O)(=O)N1CC(=O)N(c2ccc(C)c(C)c2)C(C)(C(=O)NC2CCCCCC2)C1 (configuration not stated) | 979 s |
| Cc1ccc(N2CCC(NC(=O)Nc3cc(C)ccc3C)C2=O)cc1 (configuration not stated) | 618 s |
| Cc1ccc(CNC(=O)C2(C)CCN(S(=O)(=O)c3ccc(F)cc3)CC2)cc1 | 965 s |
| CCc1ccccc1Nc1c(-c2nc(C)no2)cnc2nc(C)ccc12 | 826 s |
| CCn1c(=O)c(=O)n(CC(=O)N2CCN(c3ccccn3)CC2)c2ccccc21 | 563 s |
| O=C(NC1CCN(c2cc(-c3cccs3)[nH]n2)C1)c1cccc2[nH]ccc12 (configuration not stated) | 672 s |
| O=S(=O)(c1cc(-c2nnc(-c3ccc(F)cc3)o2)ccc1Cl)N1CCCC1 | 1070 s |
| Cn1cc(CN2CCC(C(=O)NCCc3ccco3)CC2)c2cc(Cl)ccc21 | 679 s |
| Cn1nc(C(=O)N2CCCCC2)c2c1CCN(C(=O)CCC(=O)NCCCN1CCCC1)C2 | 579 s |
| CCOCCCNC(=O)NCCn1cnc2cc(C(=O)N3CCCC3)ccc21 | 577 s |
